According to US10934274B2, “Quinoline derivatives as TAM RTK inhibitors” (Qurient Co., Ltd., priority 2015, dated 2021):
pKd: −log10 of the molar value.

Legend:
[1] = target: T1, Met (Homo sapiens, UniProt P08581); assay: LanthaScreen Eu kinase binding assay, Met; conditions: Tracer 236, read-out: cMet kinase binding activity (Kd)
T1 construct: purchased Life Technologies

[2] = target: T2, Mer (Homo sapiens, UniProt Q12866); assay: LanthaScreen Eu kinase binding assay, Mer; conditions: Tracer 236
T2 construct: purchased Life Technologies
T2 sequence (Q12866 21-999): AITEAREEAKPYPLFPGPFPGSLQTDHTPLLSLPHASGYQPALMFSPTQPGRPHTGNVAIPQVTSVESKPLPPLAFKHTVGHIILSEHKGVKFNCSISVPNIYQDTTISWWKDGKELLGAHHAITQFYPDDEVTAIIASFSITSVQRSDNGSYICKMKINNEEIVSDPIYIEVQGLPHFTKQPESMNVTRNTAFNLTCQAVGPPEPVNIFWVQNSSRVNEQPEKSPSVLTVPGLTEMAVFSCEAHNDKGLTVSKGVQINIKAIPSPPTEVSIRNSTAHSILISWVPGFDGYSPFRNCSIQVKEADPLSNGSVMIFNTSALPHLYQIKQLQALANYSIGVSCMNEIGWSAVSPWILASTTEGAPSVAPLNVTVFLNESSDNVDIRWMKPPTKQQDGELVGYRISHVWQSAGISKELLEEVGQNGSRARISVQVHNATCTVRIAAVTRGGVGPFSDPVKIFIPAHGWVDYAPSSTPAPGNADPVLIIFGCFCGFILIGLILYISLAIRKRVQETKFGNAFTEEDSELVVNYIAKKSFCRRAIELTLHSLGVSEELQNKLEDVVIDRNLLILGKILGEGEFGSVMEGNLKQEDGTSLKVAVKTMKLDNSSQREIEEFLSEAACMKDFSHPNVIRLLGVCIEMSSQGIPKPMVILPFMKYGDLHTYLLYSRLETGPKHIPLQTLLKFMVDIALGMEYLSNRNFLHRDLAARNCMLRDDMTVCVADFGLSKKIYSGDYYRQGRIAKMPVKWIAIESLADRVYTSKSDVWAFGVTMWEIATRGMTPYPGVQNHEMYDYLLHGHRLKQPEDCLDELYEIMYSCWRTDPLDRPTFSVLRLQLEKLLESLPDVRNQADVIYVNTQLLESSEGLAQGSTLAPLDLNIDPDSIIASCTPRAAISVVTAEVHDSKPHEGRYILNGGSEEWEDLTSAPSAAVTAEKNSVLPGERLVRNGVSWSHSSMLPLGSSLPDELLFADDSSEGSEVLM

[3] = target: T3, Axl (Homo sapiens, UniProt P30530); assay: LanthaScreen Eu kinase binding assay, Axl; conditions: Tracer 236
T3 construct: purchased Life Technologies
T3 sequence (P30530 26-894): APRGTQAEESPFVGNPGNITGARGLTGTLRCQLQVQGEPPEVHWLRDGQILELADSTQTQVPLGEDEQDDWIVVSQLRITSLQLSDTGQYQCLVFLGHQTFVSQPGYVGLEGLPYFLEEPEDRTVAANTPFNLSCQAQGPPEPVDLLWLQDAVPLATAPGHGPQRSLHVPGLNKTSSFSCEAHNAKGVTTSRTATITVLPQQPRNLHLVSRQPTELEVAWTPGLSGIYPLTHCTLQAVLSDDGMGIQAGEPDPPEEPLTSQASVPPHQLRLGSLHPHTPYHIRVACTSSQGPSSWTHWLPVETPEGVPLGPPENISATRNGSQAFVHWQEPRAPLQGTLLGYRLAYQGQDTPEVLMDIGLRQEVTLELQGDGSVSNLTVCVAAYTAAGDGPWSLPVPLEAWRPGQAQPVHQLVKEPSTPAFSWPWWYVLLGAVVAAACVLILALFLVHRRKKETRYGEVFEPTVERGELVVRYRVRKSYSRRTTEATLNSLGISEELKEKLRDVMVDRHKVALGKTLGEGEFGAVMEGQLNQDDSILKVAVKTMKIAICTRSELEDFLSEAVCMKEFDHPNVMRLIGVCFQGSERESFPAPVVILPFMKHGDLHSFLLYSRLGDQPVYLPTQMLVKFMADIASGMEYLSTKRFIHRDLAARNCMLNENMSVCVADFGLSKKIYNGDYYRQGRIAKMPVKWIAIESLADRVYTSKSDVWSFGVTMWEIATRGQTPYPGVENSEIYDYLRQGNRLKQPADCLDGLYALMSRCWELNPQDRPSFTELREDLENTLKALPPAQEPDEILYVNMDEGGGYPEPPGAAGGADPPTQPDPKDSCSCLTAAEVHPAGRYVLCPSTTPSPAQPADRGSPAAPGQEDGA

T1 sequence (P08581 25-1390): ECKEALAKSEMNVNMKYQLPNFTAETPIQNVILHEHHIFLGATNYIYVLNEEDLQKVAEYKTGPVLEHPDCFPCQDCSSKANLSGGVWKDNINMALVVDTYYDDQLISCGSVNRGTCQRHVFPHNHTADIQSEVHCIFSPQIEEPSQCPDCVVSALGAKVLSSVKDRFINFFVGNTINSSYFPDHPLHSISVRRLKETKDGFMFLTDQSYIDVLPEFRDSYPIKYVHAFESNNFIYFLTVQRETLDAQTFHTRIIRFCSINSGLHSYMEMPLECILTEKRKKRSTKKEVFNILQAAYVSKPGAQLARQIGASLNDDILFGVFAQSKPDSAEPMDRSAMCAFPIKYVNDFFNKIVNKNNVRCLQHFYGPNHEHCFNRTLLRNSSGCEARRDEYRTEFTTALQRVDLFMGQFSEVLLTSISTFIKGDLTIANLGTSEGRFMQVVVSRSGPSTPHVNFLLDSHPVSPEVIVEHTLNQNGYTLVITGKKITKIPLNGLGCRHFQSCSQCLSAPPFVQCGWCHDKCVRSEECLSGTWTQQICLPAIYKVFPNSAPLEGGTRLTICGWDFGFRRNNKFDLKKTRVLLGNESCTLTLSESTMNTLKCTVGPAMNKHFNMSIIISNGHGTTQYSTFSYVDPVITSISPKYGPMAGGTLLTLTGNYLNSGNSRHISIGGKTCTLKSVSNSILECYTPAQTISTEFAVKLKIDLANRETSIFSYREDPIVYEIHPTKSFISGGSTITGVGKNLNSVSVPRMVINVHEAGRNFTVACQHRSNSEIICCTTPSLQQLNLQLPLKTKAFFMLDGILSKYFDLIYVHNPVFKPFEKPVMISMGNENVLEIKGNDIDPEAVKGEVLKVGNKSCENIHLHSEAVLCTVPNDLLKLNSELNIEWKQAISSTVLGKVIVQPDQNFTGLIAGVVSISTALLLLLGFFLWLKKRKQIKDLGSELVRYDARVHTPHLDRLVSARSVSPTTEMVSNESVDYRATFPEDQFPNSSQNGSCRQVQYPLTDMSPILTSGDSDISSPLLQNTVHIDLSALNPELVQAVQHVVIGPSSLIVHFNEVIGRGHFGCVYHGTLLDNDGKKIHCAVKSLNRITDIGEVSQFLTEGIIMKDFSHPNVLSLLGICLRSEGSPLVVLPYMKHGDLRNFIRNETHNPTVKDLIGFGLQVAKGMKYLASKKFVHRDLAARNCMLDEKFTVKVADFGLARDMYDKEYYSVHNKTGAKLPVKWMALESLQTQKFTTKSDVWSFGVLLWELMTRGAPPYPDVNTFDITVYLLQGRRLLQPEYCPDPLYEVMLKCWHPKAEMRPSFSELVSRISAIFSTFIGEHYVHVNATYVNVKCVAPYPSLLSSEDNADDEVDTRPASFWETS

Row | pKd [1] | pKd [2] | pKd [3] | Structure (SMILES)
1 | > 7.00 | > 7.00 | > 7.00 | CCOc1cn(-c2ncn(C)n2)nc1C(=O)Nc1ccc(Oc2ccnc3cc(OC)c(OC)cc23)cn1 [Compound 165]
2 | > 7.00 | > 7.00 | > 7.00 | CCOc1cn(-c2noc(C)n2)nc1C(=O)Nc1ccc(Oc2ccnc3cc(OC)c(OC)cc23)cn1 [Compound 161]
3 | > 7.00 | > 7.00 | > 7.00 | CCOc1cn(-c2nc[nH]n2)nc1C(=O)Nc1ccc(Oc2ccnc3cc(OC)c(OC)cc23)cn1 [Compound 168]
4 | > 7.00 | > 7.00 | > 7.00 | CCOc1cn(-c2ccc(C(F)(F)F)cc2F)nc1C(=O)Nc1ccc(Oc2ccnc3cc(OC)c(OC)cc23)cn1 [Compound 114]
5 | > 7.00 | > 7.00 | > 7.00 | CCOc1cn(-c2cccnc2)nc1C(=O)Nc1ccc(Oc2ccnc3cc(OC(C)C)c(OC)cc23)cn1 [Compound 208]
6 | > 7.00 | > 7.00 | > 7.00 | CCOc1cn(-c2cnccc2CCO)nc1C(=O)Nc1ccc(Oc2ccnc3cc(OC)c(OC)cc23)cn1 [Compound 181]
7 | > 7.00 | > 7.00 | > 7.00 | CCOc1cn(-c2ccc(F)c(CN(C)C)c2)nc1C(=O)Nc1ccc(Oc2ccnc3cc(OC)c(OC)cc23)cn1 [Compound 124]
8 | > 7.00 | > 7.00 | > 7.00 | CCOc1cn(-c2cnccc2C(F)(F)F)nc1C(=O)Nc1ccc(Oc2ccnc3cc(OC)c(OC)cc23)cn1 [Compound 170]
9 | > 7.00 | > 7.00 | ≤ 6.00 | CCOc1cn(-c2ccnc(O)c2)nc1C(=O)Nc1ccc(Oc2ccnc3cc(OC)c(OC)cc23)cn1 [Compound 7]
10 | > 7.00 | > 7.00 | > 7.00 | CCOc1cn(-c2cnccc2C(C)=O)nc1C(=O)Nc1ccc(Oc2ccnc3cc(OC)c(OC)cc23)cn1 [Compound 182]
11 | > 7.00 | > 7.00 | > 7.00 | CCOc1cnn(-c2ccc(Cl)c(CN(C)C)c2)c1C(=O)Nc1ccc(Oc2ccnc3cc(OC)c(OC)cc23)cn1 [Compound 130]

Continued, compound first:

Row | Structure (SMILES) | pKd [1] | pKd [2] | pKd [3]
12 | CCOc1cn(-c2ccc(OC(F)(F)F)cc2Cl)nc1C(=O)Nc1ccc(Oc2ccnc3cc(OC)c(OC)cc23)c(F)c1 [Compound 189] | > 7.00 | > 7.00 | > 7.00
13 | CCOc1cnn(-c2cncs2)c1C(=O)Nc1ccc(Oc2ccnc3cc(OC)c(OC)cc23)cn1 [Compound 16] | 6.00 to 7.00 | > 7.00 | > 7.00
14 | CCOc1cn(-c2ccc(C(F)(F)F)cc2C(F)(F)F)nc1C(=O)Nc1ccc(Oc2ccnc3cc(OC)c(OC)cc23)cn1 [Compound 105] | > 7.00 | > 7.00 | > 7.00
15 | CCOc1cn(-c2ccc(C(C)C)cc2F)nc1C(=O)Nc1ccc(Oc2ccnc3cc(OC)c(OC)cc23)cn1 [Compound 127] | > 7.00 | > 7.00 | > 7.00
16 | CCOc1cn(-c2cnc(C)cn2)nc1C(=O)Nc1ccc(Oc2ccnc3cc(OC)c(OC)cc23)cn1 [Compound 160] | > 7.00 | > 7.00 | > 7.00
17 | CCOc1cn(-c2ccc(Cl)cc2F)nc1C(=O)Nc1ccc(Oc2ccnc3cc(OC)c(OC)cc23)cn1 [Compound 106] | > 7.00 | > 7.00 | > 7.00
18 | CCOc1cn(-c2cnccc2C(C)(C)O)nc1C(=O)Nc1ccc(Oc2ccnc3cc(OC)c(OC)cc23)cn1 [Compound 184] | > 7.00 | > 7.00 | > 7.00
19 | CCOc1cn(-c2cccnc2)nc1C(=O)Nc1ccc(Oc2ccnc3cc(OC(C)CC)c(OC)cc23)cn1 (stereo not drawn) [Compound 206] | ≤ 6.00 | > 7.00 | > 7.00
20 | CCOc1cn(-c2nccs2)nc1C(=O)Nc1ccc(Oc2ccnc3cc(OC)c(OC)cc23)cn1 [Compound 12] | 6.00 to 7.00 | > 7.00 | > 7.00
21 | CCOc1cn(-c2ccc(OC(F)(F)F)cc2Cl)nc1C(=O)Nc1ccc(Oc2ccnc3cc(OC)c(OC(F)(F)F)cc23)cn1 [Compound 201] | 6.00 to 7.00 | 6.00 to 7.00 | ≤ 6.00
22 | CCOc1cn(-c2ccc(F)c(CO)c2)nc1C(=O)Nc1ccc(Oc2ccnc3cc(OC)c(OC)cc23)cn1 [Compound 128] | > 7.00 | > 7.00 | > 7.00
23 | CCOc1cn(-c2cnccc2C(F)(F)F)nc1C(=O)Nc1ccc(Oc2ccnc3cc(OC)c(OC)cc23)c(F)c1 [Compound 198] | > 7.00 | > 7.00 | > 7.00
24 | CCOc1cn(-c2ccc(OC(F)(F)F)cc2C)nc1C(=O)Nc1ccc(Oc2ccnc3cc(OC)c(OC)cc23)cn1 [Compound 113] | 6.00 to 7.00 | > 7.00 | > 7.00
25 | CCOc1cn(-c2ccc(F)cc2F)nc1C(=O)Nc1ccc(Oc2ccnc3cc(OC)c(OC)cc23)cn1 [Compound 107] | > 7.00 | > 7.00 | > 7.00
26 | CCOc1cn(-c2cnc(N)nc2)nc1C(=O)Nc1ccc(Oc2ccnc3cc(OC)c(OC)cc23)c(F)c1 [Compound 141] | > 7.00 | > 7.00 | > 7.00
27 | CCOc1cn(-c2ccc(F)cc2C)nc1C(=O)Nc1ccc(Oc2ccnc3cc(OC)c(OC)cc23)nn1 [Compound 97] | ≤ 6.00 | > 7.00 | > 7.00
28 | CCOc1cn(-c2cnc(N)nc2)nc1C(=O)Nc1ccc(Oc2ccnc3cc(OC)c(OC)cc23)cn1 [Compound 10] | > 7.00 | > 7.00 | > 7.00
29 | CCOc1cnn(-c2ccc(C(F)(F)F)cc2C)c1C(=O)Nc1ccc(Oc2ccnc3cc(OC)c(OC)cc23)cn1 [Compound 102] | ≤ 6.00 | 6.00 to 7.00 | > 7.00
30 | CCOc1cn(-c2cnc(OC)nc2)nc1C(=O)Nc1ccc(Oc2ccnc3cc(OC)c(OC)cc23)cn1 [Compound 148] | > 7.00 | > 7.00 | > 7.00
31 | CCOc1cn(-c2cncs2)nc1C(=O)Nc1ccc(Oc2ccnc3cc(OC)c(OC)cc23)cn1 [Compound 14] | > 7.00 | > 7.00 | > 7.00
32 | CCOc1cn(-c2ccc(Cl)cc2CC)nc1C(=O)Nc1ccc(Oc2ccnc3cc(OC)c(OC)cc23)cn1 [Compound 111] | > 7.00 | > 7.00 | > 7.00
33 | CCOc1cn(-c2cnccc2CO)nc1C(=O)Nc1ccc(Oc2ccnc3cc(OC)c(OC)cc23)c(F)c1 [Compound 207] | > 7.00 | > 7.00 | > 7.00
34 | CCOc1cn(-c2c(C)cc(C)cc2C)nc1C(=O)Nc1ccc(Oc2ccnc3cc(OC)c(OC)cc23)cn1 [Compound 117] | > 7.00 | > 7.00 | > 7.00
35 | CCOc1cn(-c2cnccc2C)nc1C(=O)Nc1ccc(Oc2ccnc3cc(OC)c(OC)cc23)cc1F [Compound 151] | > 7.00 | > 7.00 | > 7.00
36 | CCOc1cn(-c2nccnc2C(C)(C)O)nc1C(=O)Nc1ccc(Oc2ccnc3cc(OC)c(OC)cc23)cn1 [Compound 200] | > 7.00 | > 7.00 | > 7.00
37 | CCOc1cn(-c2cnccc2C(C)(O)CO)nc1C(=O)Nc1ccc(Oc2ccnc3cc(OC)c(OC)cc23)cn1 (stereo not drawn) [Compound 205] | > 7.00 | > 7.00 | > 7.00
